According to patent publication EP2746253A1, “Novel compounds with skin lightening properties” (Unilever PLC, priority 2012, dated 2014):

Legend:
[1] = system: B16 mouse melanoma cells; test: Inhibition of pigment (melanin) production in B16 mouse melanoma cells; type: cell-based; settings: 72 h, 3 days incubation, average of 4 wells, read-out: % of melanin inhibition in B16 mouse melanoma cells assay compared to control, normalised to protein levels
Description: B16 mouse melanoma cells are widely available for example by purchase from the American Type Culture Collection (ATCC) and are routinely used by those skilled in the art to assay pigment production. The cells make and secrete melanin, a dark pigment, into the medium as the cells approach confluence. Methods for general cell culture may be easily accessed in text books and on-line (eg General Techniques of Cell Culture; M.A. Harrison and I.F. Rae Authors; Cambridge University Press ISBN 052157496X)
B16 mouse melanoma cells were maintained in cell culture and used for tests in antibiotic free Lonza Biowhittaker (BE12-662F) media (50ml fetal bovine serum and 5 ml I-glutamine (Sigma G7513) per 500 ml bottle).
The cells were maintained and grown at 37°C in an atmosphere of 5 % CO2. Trypsin/ethylene diamine tetraacetic acid (EDTA; Sigma T3924) and Dulbeccos Phosphate Buffered Saline (DPBS; Sigma D8537) were used to passage the cells as they approached ≥80 % confluence, diluting the cells by one tenth for maintenance culture.
For the pigment reduction assays, 48 well plates were seeded with 2.5 x 10^4 cells per well in phenol red-free, antibiotic-free medium (Sigma D1145) supplemented with foetal bovine serum and glutamine. Care was taken to make sure less adherent cells were not lost during the seeding process.
The plates were incubated overnight at 37°C/5 % CO2 atmosphere. The media was removed from the plates one-by-one and fresh media containing the test compound or control additions was added to each well. Compounds were prepared as stock solutions at 1000 fold higher concentration than that used for assay in dimethylsulphoxide (DMSO). Control media additions included 0.1 % DMSO, media alone and positive control(s) known to inhibit pigment production such as ketoconazole or 4-ethylresorcinol. The cells were incubated at 37°C/5 % CO2 atmosphere for a further 3 days. Cultures were assessed for melanin secretion into the medium and, as controls for toxicity of the added ingredients, for protein level and metabolic activity. A reduction in metabolic activity or protein levels is indicative of cell toxicity. The most desirable compounds therefore in the assay are those that show melanin production inhibition without loss of metabolic function or reduction in protein levels.
Media was removed from the cell plates and put into storage plates. The plates were sealed until assayed later in the day. Melanin was measured by determining optical density at 450 nm and making a comparison against melanin standards (Sigma M8631) made up anew on each day of testing. The standards used were 1000 µg/ml; 500 µg/ml; 250 µg/ml; 125 µg/ml; 62.5 µg/ml; 31.25 µg/ml; and 15.625 µg/ml.
Without delay, 100 µl of RIPA buffer (Sigma R0278) with protease inhibitor (Sigma S8830- use as per Sigma instructions) was added to the wells and the plates frozen at -20°C until the protein assessment was carried out. For example Pierce BCA Protein Assay (Thermo Scientific # 23225) can be used as per manufacturer's instructions with 10 µl of sample for each replicate.
Control and test melanin values were calculated as the average of results from 4 wells, corrected for protein levels in the cultures. The percent reduction in melanin production was calculated for each compound concentration, setting the melanin production of control incubations (vehicle alone) at 100%. Compound concentrations causing > 20% loss of WST activity are considered toxic and not considered to be effective melanin inhibitors. A compound causing > 10% reduction of melanin production into the medium was considered to be an inhibitor. Table 1: B16 mouse melanoma cells assay results for compounds of the first aspect of the invention

[2] = system: Melanoderms™; test: Pigment production by Living Skin Equivalents (Melanoderms); type: cell-based; settings: Homo sapiens, 336 h, 14 days, normalized to protein levels, read-out: Inhibition of melanin production (%) in Melanoderms™ compared to control
Description: So called reconstructed pigmented 'skin' cultures containing keratinocytes and melanocytes are commercially available and for example can be purchased from MatTek Corp, 200, Homer Avenue, Ashland, MA, USA, under the trade name Melanoderm™. Melanoderms™ (catalogue reference MEL-300) containing melanocytes from […] donor skin were maintained in EPI-100-NMM113 media following the manufacturer's instructions and using standard methods for the maintenance of cultured mammalian cells under aseptic conditions. The Melanoderm™ cultures were treated with test agents for a total of 14 days. During the 14 day culture period the melanocytes in the Melanoderm™ cultures synthesise melanin in specialised vesicular structures called melanosomes. The pigmented melanosomes are transferred to the adjacent keratinocytes and the transferred-melanosomes tend to accumulate over the nucleus of the keratinocytes. This process is the same as occurs in skin in vivo and accordingly the Melanoderm™ culture is considered to be a very good test 'skin tissue' to mimic the effect of the skin pigmentation process in vivo. A compound that leads to a reduction in melanin production in the Melanoderm™ culture over 14 days by 10 % or more is considered to have a positive pigment reducing effect. It is important that the reduction in pigment occurs without substantive loss of cell viability such that the inhibitory effect of the test compound is due to its biological function rather than due to cell toxicity.
Culture media changes and re-dosing of compounds at selected concentrations took place every 2 or 3 days during the test period. Melanoderm™ cultures were also treated with control materials including the vehicle (dimethylsulphoxide; DMSO) used to dissolve the test material and a positive control material known to lead to the synthesis of reduced amounts of melanin in the cultures. Ketoconazole and/or 4-ethylresorcinol were used as positive controls. After 14 days culture, transmitted-light microscopy images were captured for every culture using a Leica DM IL microscope at x20 magnification.
The cell viability of the cultures was assessed using the so called WST-1 (Water Soluble Tetrazolium Salt -1) assay purchased from Roche Applied Science and following the manufacturer's instructions. The stable tetrazolium salt WST-1 is cleaved to a soluble formazan dye by a complex cellular mechanism that occurs primarily at the cell surface. This bioreduction is largely dependent on the glycolytic production of NADPH in viable cells. Therefore, the amount of soluble formazan dye formed in the culture medium directly correlates to the number of metabolically active cells in the culture. Cultures were incubated with WST-1 in the medium for 1 hour and production of formazan measured at 450 nm using a spectrophotometer plate reader, eg a BMG Labtech FLUOstar plate reader. Cultures were considered 'viable' if they generated greater than 80 % of the control value of formazan product. Subsequently the culture was washed briefly in phosphate buffer solution (PBS) and total melanin and protein extracted together from each culture using 250 µl Solvable (trademark, Perkin Elmer product 6NE9100) reagent at 60°C overnight as recommended by the manufacturer. The total protein content using a sample of the extracts was determined using the so called BCA (bicinchoninic acid) assay. The BCA assay may be purchased from Pierce Chemical Company and conducted following the manufacturer's instructions. Melanin was determined by measuring the absorbance at 485 nm, for example using a BMG Labtech FLUOstar plate reader. The amount of melanin extracted from each culture was determined by reference to a standard synthetic-melanin curve (Sigma Aldrich Chemical Co; catalogue reference M8631).
Melanin levels in each culture were expressed as values normalised to the amount of protein in the cultures and compared to control vehicle treated cultures. […]

Compound	inhibition at 1 µM [1] [%]	inhibition at 5 µM [1] [%]	inhibition at 10 µM [2] [%]	inhibition at 5 µM [2] [%]
N/C(=N\N=C\c1ccc(-c2ccncc2)cc1)NCc1ccc(O)cc1 [NC-0498, (E)-1-amino-N-(4-hydroxybenzyl)-1-{(2E)-[4-(pyridin-4-yl)benzylidene]hydrazinylidene}methanaminium iodide]	0	33	53	–
COC(=O)c1ccc(CN/C(N)=N/N=C/c2csc3ccccc23)cc1 [NC-0510, (E)-1-amino-1-[(2E)-(1-benzothiophen-3-ylmethylidene)hydrazinylidene]-N-[4-(methoxycarbonyl)benzyl]methanaminium iodide]	17	29	19	18
COC(=O)c1ccc(CN/C(N)=N/N=C/c2ccc3ccccc3n2)cc1 [NC-0511, (E)-1-amino-N-[4-(methoxycarbonyl)benzyl]-1-[(2E)-(quinolin-2-ylmethylidene)hydrazinylidene]methanaminium iodide]	54	100	19	27
N/C(=N\N=C\c1csc2ccccc12)NCc1ccc(Cl)c(Cl)c1 [NC-0515, (E)-1-amino-1-[(2E)-(1-benzothiophen-3-ylmethylidene)hydrazinylidene]-N-(3,4-dichlorobenzyl)methanaminium iodide]	0	54	–	–
N/C(=N\N=C\c1csc2ccccc12)NCc1ccc(F)cc1 [NC-0517, (E)-1-amino-1-[(2E)-(1-benzothiophen-3-ylmethylidene)hydrazinylidene]-N-(4-fluorobenzyl)methanaminium iodide]	32	35	20	4
N/C(=N\N=C\c1cc2ccccc2o1)NCc1ccccc1 [NC-0519, (E)-1-amino-1-[(2E)-(1-benzofuran-2-ylmethylidene)hydrazinylidene]-N-benzylmethanaminium iodide]	71	71	47	40
COC(=O)c1ccc(CN/C(N)=N/N=C/c2cc3ccccc3o2)cc1 [NC-0521, (E)-1-amino-1-[(2E)-(1-benzofuran-2-ylmethylidene)hydrazinylidene]-N-[4-(methoxycarbonyl)benzyl]methanaminium iodide]	46	64	–	35
COC(=O)c1ccc(CN/C(N)=N/N=C/c2cc3ccccc3s2)cc1 [NC-0522, (E)-1-amino-1-[(2E)-(1-benzothiophen-2-ylmethylidene)hydrazinylidene]-N-[4-(methoxycarbonyl)benzyl]methanaminium iodide]	59	53	31	34
COC(=O)c1cccc(CN/C(N)=N/N=C/c2csc3ccccc23)c1 [NC-0525, (E)-1-amino-1-[(2E)-(1-benzothiophen-3-ylmethylidene)hydrazinylidene]-N-[3-(methoxycarbonyl)benzyl]methanaminium iodide]	18	100	–	–
COc1ccc(CN/C(N)=N/N=C/c2csc3ccccc23)cc1 [NC-0528, (E)-1-amino-1-[(2E)-(1-benzothiophen-3-ylmethylidene)hydrazinylidene]-N-(4-methoxybenzyl)methanaminium iodide]	3	73	–	–
COc1ccc(CN/C(N)=N/N=C/c2cc3ccccc3o2)cc1 [NC-0531, (E)-1-amino-1-[(2E)-(1-benzofuran-2-ylmethylidene)hydrazinylidene]-N-(4-methoxybenzyl)methanaminium iodide]	39	39	40	35
Cc1ccc2[nH]c3c(c2c1)CCC/C3=N/N=C(\N)NCc1ccc(F)cc1 [NC-0536, (E)-1-amino-N-(4-fluorobenzyl)-1-{(2Z)-[6-methyl-2,3,4,9-tetrahydro-1H-carbazol-1-ylidene]hydrazinylidene}methanaminium iodide]	24	8	–	–
Cc1ccc2[nH]c3c(c2c1)CCC/C3=N/N=C(\N)NCc1c(Cl)cccc1Cl [NC-0537, (E)-1-amino-N-(2,6-dichlorobenzyl)-1-{(2Z)-[6-methyl-2,3,4,9-tetrahydro-1H-carbazol-1-ylidene]hydrazinylidene}methanaminium iodide]	51	37	–	–
